The results in this text go back to US20200181104A1, “SSAO INHIBITORS AND USES THEREOF” (METACRINE, INC., priority 2018, published 2020).

The experiment deals with T1, Recombinant Human SSAO/VAP-1/AOC3 (Homo sapiens, UniProt Q16853).
T1 construct: purchased R&D systems 3957-AO
T1 sequence (Q16853 1-763): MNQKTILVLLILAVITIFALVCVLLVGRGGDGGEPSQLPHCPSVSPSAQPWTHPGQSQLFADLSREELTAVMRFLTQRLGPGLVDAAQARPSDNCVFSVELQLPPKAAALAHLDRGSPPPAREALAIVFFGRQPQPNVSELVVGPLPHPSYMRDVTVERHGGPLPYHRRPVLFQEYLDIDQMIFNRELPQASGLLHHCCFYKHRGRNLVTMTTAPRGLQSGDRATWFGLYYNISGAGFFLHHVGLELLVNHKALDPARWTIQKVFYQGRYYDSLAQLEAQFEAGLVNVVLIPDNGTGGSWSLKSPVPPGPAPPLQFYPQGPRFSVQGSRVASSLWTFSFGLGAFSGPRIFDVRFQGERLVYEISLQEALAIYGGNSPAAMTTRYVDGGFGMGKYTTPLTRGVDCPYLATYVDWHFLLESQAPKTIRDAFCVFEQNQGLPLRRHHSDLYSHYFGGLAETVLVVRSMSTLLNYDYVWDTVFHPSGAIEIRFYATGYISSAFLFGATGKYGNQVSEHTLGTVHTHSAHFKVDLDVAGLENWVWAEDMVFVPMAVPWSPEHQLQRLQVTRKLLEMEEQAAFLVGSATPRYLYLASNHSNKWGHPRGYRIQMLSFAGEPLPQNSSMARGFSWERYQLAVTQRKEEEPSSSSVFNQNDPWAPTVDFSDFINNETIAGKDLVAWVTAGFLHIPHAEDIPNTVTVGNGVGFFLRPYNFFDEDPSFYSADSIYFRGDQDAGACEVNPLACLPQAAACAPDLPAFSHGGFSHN
The experiment is described as follows: Human Semicarbazide-Sensitive Amine Oxidase (SSAO) Assay. In kind it is biochemical. Particulars: recombinant enzyme, 30 minutes preincubation at 37° C., benzylamine substrate, Amplex Ultra Red/HRP fluorescence. On the procedure: Compounds were dissolved in DMSO to provide a Concentration Response Curve (CRC; at 500 times the final concentration) over a range of 6-10 dilutions.
Recombinant Human SSAO/VAP-1/AOC3 (R&D systems; Catalog #3957-AO) was used to screen compound potency in vitro, according to previously described methods (J Pharmacol Exp Ther. 2013 November; 347(2):365-74). SSAO enzyme was suspended in 50 mM HEPES buffer to a working concentration of 2.5 μg/ml and 40 μL of this enzyme mixture was then added to each well of a F16 Black Maxisorp 96 well Plate (Nunc, Catalog #475515). Ten microliters of each test compound (at 5 times the final concentration) were added to each well, resulting in a final well volume of 50 μL of the enzyme and inhibitor mixture. The compounds were preincubated with the enzyme for 30 minutes at 37° C., prior to the addition of a 40 μL volume of Amplex Ultra Red (125 uM AUR; Molecular Probes, Catalog # A36006)/Horseradish peroxidase (2.5 U/ml HRP; Sigma-Aldrich Catalog # P8375) oxidase detection reagent containing cytochrome C ([…]; Sigma-Aldrich Catalog # C7752). Cytochrome C was included in the AUR/HRP detection mixture to reduce the background fluorescence that can occur via the spontaneous redox reaction between AUR and HRP. The SSAO enzyme reaction was then initiated by adding 10 μL of the SSAO substrate, benzylamine (Sigma-Aldrich Catalog # B5136), and SSAO activity was measured in kinetic mode over a 30-120 minute sampling period (excit. 544 nm; emit 590 nm; cut off 570 nm; medium gain) to obtain IC50 values for enzyme activity in each treatment well.

Each structure is given as a SMILES string. Where a name gives a salt, the structure may show the parent alone.

As usually defined, the IC50 is the concentration at which inhibition is half-maximal. On to `COC1CN(C(=O)C23CCC(c4ccc(OC/C(=C/F)CN)cc4)(CC2)CC3)C1` [Compound 2.39, (E)-(4-(4-((2-(aminomethyl)-3-fluoroallyl)oxy)phenyl)bicyclo [2.2.2]octan-1-yl)(3-methoxyazetidin-1-yl)methanone], for which the IC50 is ≤ 10 nM.

In the case of `NC/C(=C\F)COc1ccc(C23CCC(C(=O)NCc4nnn[nH]4)(CC2)CC3)cc1` [Compound 2.09, (E)-N-((1H-tetrazol-5-yl)methyl)-4-(4-((2-(aminomethyl)-3-fluoroallyl)oxy)phenyl) bicyclo[2.2.2]octane-1-carboxamide], the IC50 is ≤ 10 nM.

Regarding `NC/C(=C\F)COc1ccc(C23CCC(C(=O)N4CC5(CCCCO5)C4)(CC2)CC3)cc1` [Compound 2.143, (E)-(4-(4-((2-(aminomethyl)-3-fluoroallyl)oxy)phenyl)bicyclo [2.2.2]octan-1-yl)(5-oxa-2-azaspiro[3.5]nonan-2-yl)methanone], the IC50 is ≤ 10 nM.

With `COCCNC(=O)C12CC(c3ccc(OC/C(=C/F)CN)cc3)(C1)C2` [Compound 3.03, (E)-3-(4-((2-(aminomethyl)-3-fluoroallyl)oxy)phenyl)-N-(2-methoxyethyl)bicyclo[1.1.1] pentane-1-carboxamide], the IC50 is ≤ 10 nM.

Turning to `NC/C(=C\F)COc1ccc(C23CCC(C(=O)NC4(C(F)(F)F)CCOCC4)(CC2)CC3)cc1` [Compound 2.152, (E)-4-(4-((2-(aminomethyl)-3-fluoroallyl)oxy)phenyl)-N-(4-(trifluoromethyl)tetrahydro-2H-pyran-4-yl)bicyclo[2.2.2]octane-1-carboxamide], the IC50 was 10 to 100 nM.

As for `NC/C(=C\F)COc1ccc([C@]23CC4CC(C2)[C@H](C(=O)NC2CCOCC2)C(C4)C3)cc1` (single isomer, unassigned) [Compound 6.03, anti-5-(4-(((E)-2-(Aminomethyl)-3-fluoroallyl)oxy)phenyl)-N-(tetrahydro-2H-pyran-4-yl)adamantane-2-carboxamide Hydrochloride], the IC50 is ≤ 10 nM.

For `NC/C(=C\F)COc1ccc(C23CCC(C(=O)NCC(F)(F)CO)(CC2)CC3)cc1` [Compound 2.74, (E)-4-(4-((2-(aminomethyl)-3-fluoroallyl)oxy)phenyl)-N-(2,2-difluoro-3-hydroxypropyl)bicyclo[2.2.2] octane-1-carboxamide], the IC50 was ≤ 10 nM.

For the molecule `NC/C(=C\F)COc1ccc(C23CCC(C(=O)NCCC(=O)N4CCOCC4)(CC2)CC3)cc1` [Compound 2.68, (E)-4-(4-((2-(aminomethyl)-3-fluoroallyl)oxy)phenyl)-N-(3-morpholino-3-oxopropyl)bicyclo[2.2.2]octane-1-carboxamide], the IC50 was ≤ 10 nM.

For `NC/C(=C\F)COc1ccc(C23CCC(C(=O)N4CCC(OCCO)CC4)(CC2)CC3)cc1` [Compound 2.85, (E)-(4-(4-((2-(aminomethyl)-3-fluoroallyl)oxy)phenyl)bicyclo [2.2.2]octan-1-yl)(4-(2-hydroxyethoxy)piperidin-1-yl)methanone], the IC50 was ≤ 10 nM.

With `COC1(CCNC(=O)C23CCC(c4ccc(OC/C(=C/F)CN)cc4)(CC2)CC3)CCC1` [Compound 2.147, (E)-4-(4-((2-(aminomethyl)-3-fluoroallyl)oxy)phenyl)-N-(2-(1-methoxycyclobutyl)ethyl) bicyclo[2.2.2]octane-1-carboxamide], the IC50 is ≤ 10 nM.

Regarding `CO[C@@H]1CCCN(C(=O)C23CCC(c4ccc(OC/C(=C/F)CN)cc4)(CC2)CC3)C1` [Compound 2.111, (R,E)-(4-(4-((2-(aminomethyl)-3-fluoroallyl)oxy)phenyl)bicyclo [2.2.2]octan-1-yl)(3-methoxypiperidin-1-yl)methanone], the IC50 was ≤ 10 nM.

As for `COc1cncc(CNC(=O)C23CCC(c4ccc(OC/C(=C/F)CN)cc4)(CC2)CC3)n1` [Compound 2.161, (E)-4-(4-((2-(aminomethyl)-3-fluoroallyl)oxy)phenyl)-N-((6-methoxypyrazin-2-yl)methyl)bicyclo[2.2.2]octane-1-carboxamide], the IC50 is ≤ 10 nM.

As to `NC/C(=C\F)COc1ccc(C23CCC(C(=O)NCC4CCOCC4)(CC2)CC3)cc1` [Compound 2.20], the IC50 was ≤ 10 nM.

Consider `COC1(CNC(=O)C23CCC(c4ccc(OC/C(=C/F)CN)cc4)(CC2)CC3)CCOCC1` [Compound 2.98, (E)-4-(4-((2-(aminomethyl)-3-fluoroallyl)oxy)phenyl)-N-((4-methoxytetrahydro-2H-pyran-4-yl)methyl)bicyclo[2.2.2]octane-1-carboxamide], for which the IC50 is ≤ 10 nM.

On to `NC/C(=C\F)COc1ccc(C23CCC(C(=O)N4CCOCC4)(CC2)CC3)cc1` [Compound 2.07], for which the IC50 is ≤ 10 nM.

Take `CNC(=O)C12CCC(c3ccc(OC/C(=C\F)CN)c(C)c3)(CC1)CC2` [Compound 2.01, (Z)-4-(4-((2-(aminomethyl)-3-fluoroallyl)oxy)-3-methylphenyl)-N-methylbicyclo[2.2.2]octane-1-carboxamide]: the IC50 was ≤ 10 nM.

As to `NC/C(=C\F)COc1ccc(C23CCCC(C(=O)NC4CCOCC4)(CC2)C3)cc1` (stereo not shown) [Compound 5.01, 5-(4-(((E)-2-(Aminomethyl)-3-fluoroallyl)oxy)phenyl)-N-(tetrahydro-2H-pyran-4-yl)bicyclo[3.2.1]octane-1-carboxamide Hydrochloride], the IC50 is ≤ 10 nM.

Consider `CO[C@H]1CCC[C@@H](NC(=O)C23CCC(c4ccc(OC/C(=C/F)CN)cc4)(CC2)CC3)C1` [Compound 2.116, 4-(4-(((E)-2-(aminomethyl)-3-fluoroallyl)oxy)phenyl)-N-((1R,3S)-3-methoxycyclohexyl)bicyclo [2.2.2]octane-1-carboxamide], for which the IC50 was ≤ 10 nM.

Consider `COc1cc(CNC(=O)C23CCC(c4ccc(OC/C(=C/F)CN)cc4)(CC2)CC3)ccn1` [Compound 2.134, (E)-4-(4-((2-(aminomethyl)-3-fluoroallyl)oxy)phenyl)-N-((2-methoxpyridin-4-yl)methyl)bicyclo[2.2.2]octane-1-carboxamide], for which the IC50 was ≤ 10 nM.

As to `NC/C(=C\F)COc1ccc(C23CC(C(=O)NC4CCOCC4)(C2)C3)cc1` [Compound 3, (E)-3-(4-((2-(aminomethyl)-3-fluoroallyl)oxy)phenyl)-N-(tetrahydro-2H-pyran-4-yl)bicyclo[1.1.1]pentane-1-carboxamide], the IC50 is ≤ 10 nM.

As to `NC/C(=C\F)COc1ccc(C23CCC(C(=O)N4CCC4)(CC2)CC3)cc1` [Compound 2.40, (E)-(4-(4-((2-(aminomethyl)-3-fluoroallyl)oxy)phenyl)bicyclo [2.2.2]octan-1-yl)(azetidin-1-yl)methanone], the IC50 is ≤ 10 nM.

As for `NC/C(=C\F)COc1ccc(C23CCC(C(=O)NC4CCN(c5ccccn5)CC4)(CC2)CC3)cc1` [Compound 2.117, (E)-4-(4-((2-(aminomethyl)-3-fluoroallyl)oxy)phenyl)-N-(1-(pyridin-2-yl)piperidin-4-yl)bicyclo[2.2.2]octane-1-carboxamide], the IC50 was ≤ 10 nM.

Regarding `COC1(CNC(=O)C23CCC(c4ccc(OC/C(=C/F)CN)cc4)(CC2)CC3)CCC1` [Compound 2.92, (E)-4-(4-((2-(aminomethyl)-3-fluoroallyl)oxy)phenyl)-N-((1-methoxycyclobutyl)methyl) bicyclo[2.2.2]octane-1-carboxamide], the IC50 was ≤ 10 nM.

In the case of `NC/C(=C\F)COc1ccc(C23CCC(C(=O)NCc4cncc(C(F)(F)F)c4)(CC2)CC3)cc1` [Compound 2.159, (E)-4-(4-((2-(aminomethyl)-3-fluoroallyl)oxy)phenyl)-N-((5-(trifluoromethyl)pyridin-3-yl)methyl)bicyclo[2.2.2]octane-1-carboxamide], the IC50 is ≤ 10 nM.

Turning to `NC/C(=C\F)COc1ccc(C23CCC(C(=O)NC4CC(F)(F)C4)(CC2)CC3)cc1` [Compound 2.135, (E)-4-(4-((2-(aminomethyl)-3-fluoroallyl)oxy)phenyl)-N-(3,3-difluorocyclobutyl)bicyclo[2.2.2] octane-1-carboxamide], the IC50 was ≤ 10 nM.
